Reference: PMC9737972, “Dual LSD1 and HDAC6 Inhibition Induces Doxorubicin Sensitivity in Acute Myeloid Leukemia Cells” (Cancers, 2022)
Where two headings read alike, the source gives them in different places.

Key:
[1] = test system: THP-1; test: Cell Titer-Glo cell viability, THP-1; assay type: cell-based; conditions: Homo sapiens, read-out: IC50 cell viability THP-1
[2] = biological target: T1, HDAC1 (Homo sapiens, UniProt Q13547); test: Cellular thermal shift assay (CETSA), HDAC1; assay type: cell-based; conditions: THP-1 cells, 1 h; 4 μM (methods), Figure S14 legend 500 nM
T1 construct: endogenous in cells; host or cells: THP-1
Method: (§1) THP-1 cells, 1 × 10^7 cells at a density of 1 × 10^6 cells/mL, were treated with 4 μM of test compounds (1 h, 37 °C, 5% CO2). Cells were centrifuged, and the pellet was resuspended with 1 × Phosphate Buffer Saline (Gibco, Grand Island, NY, USA, #10010023) containing 1 × Protease Inhibitor Cocktail (Cell Signaling Technology, Beverly, MA, USA, #5871) and 1 mM phenylmethylsulfonyl fluoride (PMSF, Sigma Aldrich, St. Louis, MO, USA, #10837091001). The suspension volume was divided equally and heated for 3 min at 43–64 °C in a T100 Thermal Cycler (Bio-rad, Hercules, CA, USA). For protein extraction, cells were snap-frozen using liquid nitrogen, thawed twice (25 °C, 1 min), then centrifuged (20,000× g, 15 min, 4 °C). Following centrifugation, protein containing supernatants were denatured at 70 °C for 10 min and loaded on SDS-PAGE gels (Bio-Rad, Hercules, CA, USA, 161-0317). […] The signal was detected with BIORAD Chemi-Doc XRS+ System and by using Immobilon Forte Western HRP Substrate (WBLUF0500).

[3] = test system: MOLM-13; test: Cell Titer-Glo cell viability, MOLM-13; assay type: cell-based; conditions: Homo sapiens, read-out: IC50 cell viability MOLM-13
[4] = biological target: T2, HDAC6 (Homo sapiens, UniProt Q9UBN7); test: Cellular thermal shift assay (CETSA), HDAC6; assay type: cell-based; conditions: THP-1 cells, 1 h; 4 μM (methods, Figure 2), Figure S14 legend 500 nM
T2 construct: endogenous in cells; host or cells: THP-1
T2 sequence (Q9UBN7 1-1215): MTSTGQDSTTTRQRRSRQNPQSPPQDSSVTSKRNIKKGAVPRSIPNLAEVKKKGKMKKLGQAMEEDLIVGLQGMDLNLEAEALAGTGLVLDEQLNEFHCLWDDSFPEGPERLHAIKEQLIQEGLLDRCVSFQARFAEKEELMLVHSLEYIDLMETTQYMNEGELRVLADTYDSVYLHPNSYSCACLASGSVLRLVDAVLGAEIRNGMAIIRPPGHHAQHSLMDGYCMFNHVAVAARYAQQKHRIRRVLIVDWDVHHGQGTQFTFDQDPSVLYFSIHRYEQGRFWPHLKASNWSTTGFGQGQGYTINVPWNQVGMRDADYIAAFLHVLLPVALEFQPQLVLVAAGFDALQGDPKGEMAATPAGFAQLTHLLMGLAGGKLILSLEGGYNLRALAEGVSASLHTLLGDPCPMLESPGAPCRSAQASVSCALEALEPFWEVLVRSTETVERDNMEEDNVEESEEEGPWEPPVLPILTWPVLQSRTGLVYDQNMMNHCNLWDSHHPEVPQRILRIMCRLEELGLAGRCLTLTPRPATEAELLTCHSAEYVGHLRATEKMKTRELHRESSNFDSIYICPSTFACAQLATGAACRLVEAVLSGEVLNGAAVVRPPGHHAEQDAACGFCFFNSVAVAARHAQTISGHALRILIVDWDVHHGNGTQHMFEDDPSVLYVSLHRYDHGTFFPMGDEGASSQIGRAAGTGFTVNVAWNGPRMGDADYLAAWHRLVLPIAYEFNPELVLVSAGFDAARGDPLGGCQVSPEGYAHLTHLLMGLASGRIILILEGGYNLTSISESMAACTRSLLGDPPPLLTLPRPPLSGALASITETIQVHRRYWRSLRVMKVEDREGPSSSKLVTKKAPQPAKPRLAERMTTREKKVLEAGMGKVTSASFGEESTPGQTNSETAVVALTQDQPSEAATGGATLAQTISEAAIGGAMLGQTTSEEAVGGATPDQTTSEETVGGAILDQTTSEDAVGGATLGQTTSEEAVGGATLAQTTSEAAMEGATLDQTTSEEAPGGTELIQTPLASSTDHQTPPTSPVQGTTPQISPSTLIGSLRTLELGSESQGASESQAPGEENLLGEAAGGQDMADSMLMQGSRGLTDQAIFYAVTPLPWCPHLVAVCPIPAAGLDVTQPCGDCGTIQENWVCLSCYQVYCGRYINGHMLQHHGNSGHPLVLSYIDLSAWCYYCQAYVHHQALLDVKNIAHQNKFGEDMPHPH
Method: (§2) THP-1 cells, 1 × 10^7 cells at a density of 1 × 10^6 cells/mL, were treated with 4 μM of test compounds (1 h, 37 °C, 5% CO2). Cells were centrifuged, and the pellet was resuspended with 1 × Phosphate Buffer Saline (Gibco, Grand Island, NY, USA, #10010023) containing 1 × Protease Inhibitor Cocktail (Cell Signaling Technology, Beverly, MA, USA, #5871) and 1 mM phenylmethylsulfonyl fluoride (PMSF, Sigma Aldrich, St. Louis, MO, USA, #10837091001). The suspension volume was divided equally and heated for 3 min at 43–64 °C in a T100 Thermal Cycler (Bio-rad, Hercules, CA, USA). For protein extraction, cells were snap-frozen using liquid nitrogen, thawed twice (25 °C, 1 min), then centrifuged (20,000× g, 15 min, 4 °C). Following centrifugation, protein containing supernatants were denatured at 70 °C for 10 min and loaded on SDS-PAGE gels (Bio-Rad, Hercules, CA, USA, 161-0317). After electrophoresis (100 V and 60 min), proteins were transferred onto PVDF membrane (Bio-Rad #1620177) at 200 mA for 180 min and immunoblotted with primary antibodies (1:10,000 dilution for anti-LSD1 Antibody ab129195 [EPR6825], 1:1000 dilution for Anti-HDAC6 Antibody CST 7558, 1:1000 dilution for Anti-HDAC1 Antibody ab53091, 1:1000 dilution for Anti-HDAC8 Antibody ab187139, 1:5000 dilution for Anti-beta Actin Antibody ab8227) overnight at 4 °C. The next day, membranes were incubated with HRP-conjugated secondary antibodies (1:5000 dilution for Abcam, Cambridge, UK, ab205718) for 1 h at room temperature. The signal was detected with BIORAD Chemi-Doc XRS+ System and by using Immobilon Forte Western HRP Substrate (WBLUF0500).

[5] = biological target: T2, HDAC6; set-up: method as in PMID 22262760; conditions: cited from earlier work
[6] = test system: Jurkat; test: Cell Titer-Glo cell viability, Jurkat; assay type: cell-based; conditions: Homo sapiens, 120 h, read-out: IC50 cell viability Jurkat
[7] = test system: MOLM-13; test: Combination treatment with doxorubicin, MOLM-13 cell viability; assay type: cell-based; conditions: iDual 0.5 μM, iHDAC6 0.5 μM, GSK2879552 1.25 μM, ricolinostat […], 72 h then + doxorubicin 2 nM 48 h
[8] = test system: K-562; test: Cell Titer-Glo cell viability, K-562; assay type: cell-based; conditions: Homo sapiens, read-out: IC50 cell viability K-562
[9] = test system: LSD1 and HDAC substrates in THP-1 cells; test: Western blot of methylation and acetylation levels of LSD1 and HDAC substrates; assay type: cell-based; conditions: for nuclear histone H3 acetylation (H3K18ac and H3K27ac levels), change vs DMSO: 24 h (ricolinostat 0.75 μM or 4 μM)
[10] = biological target: T3, LSD1 (Homo sapiens, UniProt O60341); test: LSD1 MALDI-TOF enzyme assay; assay type: biochemical; set-up: made in house; conditions: ± standard error, three independent measurements
[11] = biological target: T3, LSD1; test: Cellular thermal shift assay (CETSA), LSD1; assay type: cell-based; set-up: endogenous in cells; host or cells: THP-1; conditions: THP-1 cells, 1 h; 4 μM (methods, Figure 2), Figure S14 legend 500 nM
Method: as §2

[12] = biological target: T4, HDAC-3/NcoR2 (Homo sapiens, UniProt O15379); test: HDAC-Glo I/II enzyme assay, HDAC3; assay type: biochemical; conditions: ± standard error, three independent measurements
T4 construct: purchased BPS Bioscience 50003

[13] = biological target: T5, N-ter-GST-HDAC-6 (Homo sapiens, UniProt Q9UBN7); test: HDAC-Glo I/II enzyme assay, HDAC6; assay type: biochemical; conditions: ± standard error, three independent measurements
T5 construct: GST (N); purchased BPS Bioscience 50006
T5 sequence (Q9UBN7 1-1215): T2 sequence (Q9UBN7 1-1215)

[14] = biological target: T6, C-terminal His-tag-HDAC8 (Homo sapiens, UniProt Q9BY41); test: HDAC-Glo I/II enzyme assay, HDAC8; assay type: biochemical; conditions: ± standard error, three independent measurements
T6 construct: His (C); purchased BPS Bioscience 50008
T6 sequence (Q9BY41 1-377): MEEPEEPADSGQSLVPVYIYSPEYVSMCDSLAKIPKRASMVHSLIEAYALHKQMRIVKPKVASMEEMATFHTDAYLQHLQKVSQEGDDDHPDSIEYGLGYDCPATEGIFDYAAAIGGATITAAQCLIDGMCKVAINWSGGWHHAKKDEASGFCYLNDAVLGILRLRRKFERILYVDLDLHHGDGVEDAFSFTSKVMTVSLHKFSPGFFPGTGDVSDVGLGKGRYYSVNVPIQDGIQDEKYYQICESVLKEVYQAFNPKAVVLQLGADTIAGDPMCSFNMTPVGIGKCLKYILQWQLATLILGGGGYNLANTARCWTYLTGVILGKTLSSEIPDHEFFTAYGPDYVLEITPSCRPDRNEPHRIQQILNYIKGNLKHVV

[15] = biological target: T7, HDAC8 (Homo sapiens, UniProt Q9BY41); test: Cellular thermal shift assay (CETSA), HDAC8; assay type: cell-based; conditions: THP-1 cells, 1 h; 4 μM (methods, Figure 2), Figure S14 legend 500 nM
T7 construct: endogenous in cells; host or cells: THP-1
T7 sequence (Q9BY41 1-377): T6 sequence (Q9BY41 1-377)
Method: as §1

[16] = biological target: T8, Human recombinant C-ter-His-FLAG-HDAC1 (Homo sapiens, UniProt Q13547); test: HDAC-Glo I/II enzyme assay, HDAC1; assay type: biochemical; conditions: ± standard error, three independent measurements
T8 construct: His (C); FLAG (C); purchased BPS Bioscience 50051

[17] = test system: THP-1 cells; test: Caspase 3/7 and 7-AAD staining (flow cytometry); conditions: doxorubicin alone at sublethal concentration (62.5 nM, 48 h)
[18] = cited from earlier work
[19] = test system: LSD2; conditions: cited from earlier work
[20] = test system: MAOs; conditions: cited from earlier work
[21] = THP-1, 120 h, ± standard deviation, three biological repeats
[22] = MOLM-13, 120 h, ± standard deviation, three biological repeats
[23] = ± standard deviation, three biological repeats
[24] = K562, 120 h, ± standard deviation, three biological repeats

T4 sequence (O15379 whole entry): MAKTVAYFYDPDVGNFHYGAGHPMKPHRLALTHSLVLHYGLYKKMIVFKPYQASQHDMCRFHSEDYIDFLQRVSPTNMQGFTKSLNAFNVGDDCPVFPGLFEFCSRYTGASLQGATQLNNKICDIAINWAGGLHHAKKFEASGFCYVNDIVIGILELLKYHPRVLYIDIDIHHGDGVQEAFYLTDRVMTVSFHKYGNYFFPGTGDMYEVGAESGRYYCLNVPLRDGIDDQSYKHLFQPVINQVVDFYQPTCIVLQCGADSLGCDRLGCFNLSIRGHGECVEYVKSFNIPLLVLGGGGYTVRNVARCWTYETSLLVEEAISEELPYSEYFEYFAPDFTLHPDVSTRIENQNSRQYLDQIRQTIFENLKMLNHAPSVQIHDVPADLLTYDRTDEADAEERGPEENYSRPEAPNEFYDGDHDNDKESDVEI
T4 sequence (Q9Y618 395-489 partner limits assumed): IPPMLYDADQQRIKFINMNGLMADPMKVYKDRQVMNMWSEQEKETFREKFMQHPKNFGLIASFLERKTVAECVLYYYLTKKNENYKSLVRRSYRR
T8 sequence (Q13547 whole entry): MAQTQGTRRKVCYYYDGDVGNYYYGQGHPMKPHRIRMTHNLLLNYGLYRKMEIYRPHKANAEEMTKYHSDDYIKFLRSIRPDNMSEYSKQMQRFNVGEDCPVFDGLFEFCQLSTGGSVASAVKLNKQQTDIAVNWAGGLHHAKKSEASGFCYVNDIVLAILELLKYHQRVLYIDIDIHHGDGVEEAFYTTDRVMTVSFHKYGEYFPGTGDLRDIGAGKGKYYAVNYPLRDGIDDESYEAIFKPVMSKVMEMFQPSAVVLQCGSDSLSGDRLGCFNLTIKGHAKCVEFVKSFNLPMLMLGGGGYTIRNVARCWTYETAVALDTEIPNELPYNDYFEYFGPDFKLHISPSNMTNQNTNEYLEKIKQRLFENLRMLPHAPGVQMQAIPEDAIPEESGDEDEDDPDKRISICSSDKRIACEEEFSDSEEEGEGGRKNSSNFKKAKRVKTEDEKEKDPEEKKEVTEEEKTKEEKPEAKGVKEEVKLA
T1 sequence (Q13547 whole entry): as above

| IC50 [10] [µM] | IC50 [1, 21] [µM] | thermal stabilization of LSD1 (CETSA) [11] | IC50 [12] [µM] | IC50 [13] [µM] | IC50 [14] [µM] | IC50 [3, 22] [µM] | IC50 [6, 23] [µM] | IC50 [8, 24] [µM] | IC50 [16] [µM] | SMILES | thermal stabilization of HDAC1 (CETSA) [2] | thermal stabilization of HDAC6 (CETSA) [4] | cell viability after priming with compound and co-treatment with doxorubicin 2 nM [7] | nuclear histone H3 acetylation (H3K18ac and H3K27ac levels), change vs DMSO ([9]; 4 μM) | further results |
| --- | --- | --- | --- | --- | --- | --- | --- | --- | --- | --- | --- | --- | --- | --- | --- |
| – | – | – | – | – | – | – | – | – | – | O=C(CCCCCCNC(=O)c1cnc(N(c2ccccc2)c2ccccc2)nc1)NO [ricolinostat, reference compound] | stabilized | stabilizing HDAC6 | next in terms of activity | greater effect | IC50 ([1]; THP-1, 120 h): 2.9 ± 0.1 µM; IC50 ([3]; MOLM-13, 120 h): 0.2 ± 0.03 µM; HDAC6/HDAC1 isoform selectivity reported [5]: approximately 10 fold; IC50 [6]: 1.9 ± 0.003 µM; IC50 ([8]; K562, 120 h): 2.6 ± 0.3 µM; acetylation levels of α-tubulin, fold increase vs DMSO ([9]; 4 μM, 24 h): 25 fold; acetylation levels of α-tubulin, fold increase vs DMSO ([9]; ~0.75 μM (similar fraction of IC50), 24 h): 20 fold |
| > 100 | > 20 | did not exhibit target engagement | > 100 | > 100 | > 100 | > 20 | > 20 | > 20 | > 100 | O=C(O)c1ccc(CN2CCC(CNC3(c4ccccc4)CC3)CC2)cc1 [iNC] | did not exhibit target engagement | did not exhibit target engagement | – | – | thermal stabilization of HDAC8 (CETSA) [15]: did not exhibit target engagement |
| – | – | – | – | – | – | – | – | – | – | COc1cccc2c1C(=O)c1c(O)c3c(c(O)c1C2=O)C[C@@](O)(C(=O)CO)C[C@@H]3O[C@H]1C[C@H](N)[C@H](O)[C@H](C)O1 [doxorubicin] | – | – | – | – | cells in the apoptosis/dead quadrant (caspase 3/7 staining), drug alone [17]: 30% |
| 1.54 ± 0.41 | > 20 | stabilizing LSD1 only | > 100 | > 100 | > 100 | 15 ± 3.5 | > 20 | > 20 | > 100 | O=C(O)c1ccc(CN2CCC(CN[C@@H]3C[C@H]3c3ccccc3)CC2)cc1 [GSK2879552, reference compound] | – | – | relatively ineffective | did not significantly alter | in vivo oral bioavailability [18]: favorable; inhibition of LSD2 [19]: undetectable levels of inhibition; inhibition of MAOs [20]: undetectable levels of inhibition; levels of the histone substrate H3K4me2 ([9]; 4 μM, 24 h): increase |
